We go through two molecules from ChEMBL document CHEMBL1201862, “PubChem BioAssay data set” (2004).

Experiment [1] deals with T1, Small ubiquitin-related modifier 1 (Homo sapiens, UniProt P63165). The experiment in a line: SUMO1 protein interaction blockers, potency – biochemical, fluorescence polarization, uHTS hits, dose response (AID 624382). In kind it is functional. The conditions noted are these: read-out: IC50_Mean.
Experiment [2] has as its target T2, Polyadenylate-binding protein 1 (Homo sapiens, UniProt P11940). As to the kind of experiment: MLLE binding blockers, Cy5 peptide tracer – biochemical, fluorescence polarization, Cy5-PAM2 peptide, secondary, miRNA deadenylation inhibitor project, dose response (AID 602260). In kind it is functional. The conditions noted are these: read-out: IC50_Mean. A general note: Polarisation of emitted light reports the rotation of a fluorescent probe.

Another experiment deals with Genome polyprotein (dengue virus type 2, UniProt P29990). The experiment in a line: flavivirus cap methylation enzyme inhibition – biochemical, confirmation dose response, primary screen (AID 588689). In kind it is functional.
Experiment [3] concerns the target T2, Polyadenylate-binding protein 1. As to the kind of experiment: MLLE domain peptide-binding blockers, IC50 – biochemical, fluorescence polarization, FITC-PAM2 peptide, dose response (AID 602259). In kind it is functional. The conditions noted are these: read-out: IC50_Mean.
The test system of the next experiment is Vero. The experiment in a line: viability of Vero cells under compound – cytotoxicity control for flavivirus capping enzyme inhibitors (AID 588742). The conditions noted are these: Chlorocebus sabaeus. Type of experiment: functional.
In experiment [4] the target is T3, Zinc finger protein mex-5 (Caenorhabditis elegans, UniProt Q9XUB2).
T3 sequence (Q9XUB2 whole entry): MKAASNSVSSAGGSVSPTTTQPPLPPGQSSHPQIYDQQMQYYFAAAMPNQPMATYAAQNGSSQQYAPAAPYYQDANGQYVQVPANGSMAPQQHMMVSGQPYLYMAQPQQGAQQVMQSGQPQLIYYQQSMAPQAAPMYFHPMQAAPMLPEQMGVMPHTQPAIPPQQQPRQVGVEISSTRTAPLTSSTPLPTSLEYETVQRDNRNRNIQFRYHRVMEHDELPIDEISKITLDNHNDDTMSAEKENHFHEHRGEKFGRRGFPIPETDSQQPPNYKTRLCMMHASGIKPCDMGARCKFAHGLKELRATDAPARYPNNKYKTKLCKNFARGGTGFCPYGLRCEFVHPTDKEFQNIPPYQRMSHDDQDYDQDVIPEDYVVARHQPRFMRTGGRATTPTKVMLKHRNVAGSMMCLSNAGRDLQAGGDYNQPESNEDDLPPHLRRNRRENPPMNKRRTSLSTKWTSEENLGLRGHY
As to the kind of experiment: potency of MEX-5 RNA-binding blockers – biochemical, C. elegans, fluorescence polarization, dose response (AID 1960).

In experiment [5] the target is T4, Rac GTPase-activating protein 1 (Homo sapiens, UniProt Q9H0H5).
T4 sequence (Q9H0H5 whole entry): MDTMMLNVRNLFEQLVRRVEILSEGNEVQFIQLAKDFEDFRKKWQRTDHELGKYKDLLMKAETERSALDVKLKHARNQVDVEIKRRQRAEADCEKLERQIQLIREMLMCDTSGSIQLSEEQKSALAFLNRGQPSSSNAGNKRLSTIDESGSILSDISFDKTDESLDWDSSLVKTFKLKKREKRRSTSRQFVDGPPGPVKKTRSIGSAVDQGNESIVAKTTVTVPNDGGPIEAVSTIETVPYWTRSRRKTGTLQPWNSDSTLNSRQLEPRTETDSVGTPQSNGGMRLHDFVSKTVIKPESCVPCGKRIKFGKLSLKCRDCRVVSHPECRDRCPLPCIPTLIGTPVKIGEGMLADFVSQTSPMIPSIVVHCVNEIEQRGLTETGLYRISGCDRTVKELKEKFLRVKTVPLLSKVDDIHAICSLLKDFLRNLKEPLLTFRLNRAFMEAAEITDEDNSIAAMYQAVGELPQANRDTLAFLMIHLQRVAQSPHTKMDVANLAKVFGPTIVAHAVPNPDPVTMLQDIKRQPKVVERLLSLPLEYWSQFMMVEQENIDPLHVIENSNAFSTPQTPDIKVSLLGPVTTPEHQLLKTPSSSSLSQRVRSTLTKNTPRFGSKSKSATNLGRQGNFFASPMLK
As to the kind of experiment: blockers of MgcRacGAP-driven Rac1 GTP hydrolysis – biochemical, ADP Hunter fluorescence, primary and confirmatory, confirmation (AID 624330). In kind it is functional.

In a further experiment the target is ORF 73 (Human herpesvirus 8, UniProt O40947). The experiment in a line: KSHV LANA DNA-binding disruption – biochemical, fluorescence polarization, cherry-picked samples, dose response (AID 504725).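 Also: fluorescence polarization of a labeled DNA duplex reporting LANA DNA binding; potency is for inhibitors that block LANA binding to the DNA.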 Also noted: species or system Human gammaherpesvirus 8.
The target in experiment [6] is T5, RNA-binding protein pos-1 (Caenorhabditis elegans, UniProt G5EF15).
T5 sequence (G5EF15 whole entry): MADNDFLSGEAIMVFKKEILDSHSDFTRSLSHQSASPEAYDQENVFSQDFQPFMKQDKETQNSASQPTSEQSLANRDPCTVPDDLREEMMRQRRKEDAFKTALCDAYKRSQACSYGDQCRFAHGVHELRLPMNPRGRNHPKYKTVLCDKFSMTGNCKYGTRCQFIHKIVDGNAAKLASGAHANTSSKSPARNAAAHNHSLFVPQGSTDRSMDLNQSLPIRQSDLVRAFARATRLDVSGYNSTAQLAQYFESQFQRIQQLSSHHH
The experiment in a line: disruptors of C. elegans POS-1 RNA interaction – biochemical, fluorescence polarization, dose response (AID 1964).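 Also: purified POS-1 fused to maltose binding protein made in E. coli; potency of compounds blocking POS-1 binding to fluorescent RNA.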

Experiment [7] concerns the target T1, Small ubiquitin-related modifier 1. As to the kind of experiment: SUMO1 protein-protein binding blockers, potency – biochemical, FRET, dose response (AID 624383). In kind it is functional. The conditions noted are these: read-out: IC50_Mean.
In experiment [8] the target is T6, Sentrin-specific protease 6 (Homo sapiens, UniProt Q9GZR1).
T6 sequence (Q9GZR1 whole entry): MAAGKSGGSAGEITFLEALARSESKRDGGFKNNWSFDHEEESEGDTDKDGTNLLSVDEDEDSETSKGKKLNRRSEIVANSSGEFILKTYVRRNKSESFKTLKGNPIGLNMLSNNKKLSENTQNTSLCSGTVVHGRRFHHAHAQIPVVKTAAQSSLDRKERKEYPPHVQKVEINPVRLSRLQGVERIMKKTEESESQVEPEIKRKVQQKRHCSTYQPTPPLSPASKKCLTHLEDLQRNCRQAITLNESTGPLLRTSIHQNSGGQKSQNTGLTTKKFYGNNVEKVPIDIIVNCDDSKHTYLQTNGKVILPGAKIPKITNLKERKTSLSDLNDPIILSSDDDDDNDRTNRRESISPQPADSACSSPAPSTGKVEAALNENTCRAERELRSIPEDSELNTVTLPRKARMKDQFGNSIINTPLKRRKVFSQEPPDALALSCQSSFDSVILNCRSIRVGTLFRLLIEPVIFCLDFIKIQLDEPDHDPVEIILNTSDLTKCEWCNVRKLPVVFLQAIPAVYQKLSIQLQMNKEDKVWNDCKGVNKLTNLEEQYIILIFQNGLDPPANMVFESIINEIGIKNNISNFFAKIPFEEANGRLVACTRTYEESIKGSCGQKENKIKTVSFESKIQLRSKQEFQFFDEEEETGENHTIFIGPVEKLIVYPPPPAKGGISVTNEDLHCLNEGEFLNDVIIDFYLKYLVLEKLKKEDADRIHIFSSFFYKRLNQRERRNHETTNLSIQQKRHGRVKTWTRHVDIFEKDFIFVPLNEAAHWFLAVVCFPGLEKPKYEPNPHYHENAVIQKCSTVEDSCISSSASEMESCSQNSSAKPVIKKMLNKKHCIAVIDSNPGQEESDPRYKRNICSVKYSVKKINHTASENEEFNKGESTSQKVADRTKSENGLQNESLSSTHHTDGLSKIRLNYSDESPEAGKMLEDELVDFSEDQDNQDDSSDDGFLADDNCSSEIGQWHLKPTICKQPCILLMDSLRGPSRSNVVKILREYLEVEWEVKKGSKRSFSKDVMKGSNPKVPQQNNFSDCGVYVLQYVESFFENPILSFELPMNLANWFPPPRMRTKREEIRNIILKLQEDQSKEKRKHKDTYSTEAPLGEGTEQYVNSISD
As to the kind of experiment: SAR Analysis of small molecule inhibitors of Sentrin-specific protease 6 (SENP6) using a Luminescent assay. [Related pubchem assays (depositor defined):AID2582, AID2599]. Type of experiment: functional.

Experiment [9] has as its target T7, Sentrin-specific protease 7 (Homo sapiens, UniProt Q9BQF6).
T7 sequence (Q9BQF6 whole entry): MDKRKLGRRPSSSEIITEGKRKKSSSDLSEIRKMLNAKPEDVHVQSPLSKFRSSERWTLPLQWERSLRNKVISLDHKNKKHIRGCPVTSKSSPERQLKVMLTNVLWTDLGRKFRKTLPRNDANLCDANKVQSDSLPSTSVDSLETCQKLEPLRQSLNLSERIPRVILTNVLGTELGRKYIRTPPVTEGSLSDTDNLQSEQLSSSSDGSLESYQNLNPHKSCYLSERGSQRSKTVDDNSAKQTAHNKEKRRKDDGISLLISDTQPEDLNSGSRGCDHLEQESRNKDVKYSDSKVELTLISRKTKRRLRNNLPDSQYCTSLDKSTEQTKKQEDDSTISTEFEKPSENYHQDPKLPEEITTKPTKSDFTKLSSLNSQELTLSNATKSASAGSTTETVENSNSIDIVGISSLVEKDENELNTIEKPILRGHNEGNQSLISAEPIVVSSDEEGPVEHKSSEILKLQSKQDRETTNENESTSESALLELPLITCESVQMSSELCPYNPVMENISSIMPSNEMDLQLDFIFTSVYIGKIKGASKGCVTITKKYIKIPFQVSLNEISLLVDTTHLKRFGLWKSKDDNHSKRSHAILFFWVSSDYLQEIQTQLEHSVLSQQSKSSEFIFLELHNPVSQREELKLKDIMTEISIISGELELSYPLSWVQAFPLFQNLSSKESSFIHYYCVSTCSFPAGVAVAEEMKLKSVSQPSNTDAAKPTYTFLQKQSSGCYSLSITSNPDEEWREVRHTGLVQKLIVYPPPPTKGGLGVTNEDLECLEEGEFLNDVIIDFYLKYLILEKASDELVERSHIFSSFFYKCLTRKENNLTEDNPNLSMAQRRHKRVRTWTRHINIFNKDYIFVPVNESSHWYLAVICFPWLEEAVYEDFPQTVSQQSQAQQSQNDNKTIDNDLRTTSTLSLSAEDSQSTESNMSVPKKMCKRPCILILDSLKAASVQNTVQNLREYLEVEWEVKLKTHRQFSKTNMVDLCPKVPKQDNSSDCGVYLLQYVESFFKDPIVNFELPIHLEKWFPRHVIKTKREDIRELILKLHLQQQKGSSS
The experiment in a line: inhibition of human SENP7 cleavage activity – biochemical, luminescence, SAR follow-up (AID 504497). Type of experiment: functional.

The next experiment concerns the target T8, Caspase-3 (Homo sapiens, UniProt P42574).
T8 sequence (P42574 whole entry): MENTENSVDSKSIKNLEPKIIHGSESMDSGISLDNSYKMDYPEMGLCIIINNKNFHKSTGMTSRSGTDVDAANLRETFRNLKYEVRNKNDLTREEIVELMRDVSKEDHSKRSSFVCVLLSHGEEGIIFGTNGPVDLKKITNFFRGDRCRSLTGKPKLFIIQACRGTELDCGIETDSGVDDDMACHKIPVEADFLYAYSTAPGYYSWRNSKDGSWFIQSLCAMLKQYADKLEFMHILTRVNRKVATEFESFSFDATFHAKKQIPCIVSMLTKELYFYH
The experiment in a line: SAR Analysis of small molecule inhibitors of Sentrin-specific proteases (SENPs) using a Caspase-3 Selectivity assay. [Related pubchem assays (depositor defined):AID2540, AID2599, AID434973, AID489001]. In kind it is functional.

The target of experiment [10] is T9, Sentrin-specific protease 8 (Homo sapiens, UniProt Q96LD8).
T9 sequence (Q96LD8 whole entry): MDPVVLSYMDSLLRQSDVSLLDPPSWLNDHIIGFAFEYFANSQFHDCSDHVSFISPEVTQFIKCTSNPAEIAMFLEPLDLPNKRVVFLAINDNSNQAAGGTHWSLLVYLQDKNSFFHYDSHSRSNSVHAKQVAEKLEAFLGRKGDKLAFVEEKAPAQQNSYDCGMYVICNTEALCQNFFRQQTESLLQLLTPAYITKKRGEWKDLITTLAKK
The experiment in a line: inhibition of human SENP8 cleavage activity – biochemical, luminescence, SAR follow-up (AID 504501). Type of experiment: functional.

Calls of active or inactive are those of the source. A value given as a limit tells only on which side of the number the result lay.

T2 sequence (P11940 whole entry): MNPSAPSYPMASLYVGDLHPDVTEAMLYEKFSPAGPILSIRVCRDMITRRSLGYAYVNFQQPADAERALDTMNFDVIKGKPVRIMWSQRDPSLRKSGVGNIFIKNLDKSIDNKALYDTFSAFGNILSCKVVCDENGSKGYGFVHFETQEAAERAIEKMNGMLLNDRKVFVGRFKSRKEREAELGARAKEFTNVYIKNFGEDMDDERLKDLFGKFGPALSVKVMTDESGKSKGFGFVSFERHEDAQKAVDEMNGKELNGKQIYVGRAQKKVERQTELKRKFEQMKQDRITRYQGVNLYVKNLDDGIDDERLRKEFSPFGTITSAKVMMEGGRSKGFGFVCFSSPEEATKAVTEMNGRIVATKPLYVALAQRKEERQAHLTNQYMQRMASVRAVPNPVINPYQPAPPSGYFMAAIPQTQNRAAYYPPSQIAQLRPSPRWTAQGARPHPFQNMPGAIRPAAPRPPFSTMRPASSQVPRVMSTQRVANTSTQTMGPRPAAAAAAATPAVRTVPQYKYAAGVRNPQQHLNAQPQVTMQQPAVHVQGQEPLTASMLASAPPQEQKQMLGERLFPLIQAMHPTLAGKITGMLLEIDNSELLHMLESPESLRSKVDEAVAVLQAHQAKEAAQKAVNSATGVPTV
T1 sequence (P63165 whole entry): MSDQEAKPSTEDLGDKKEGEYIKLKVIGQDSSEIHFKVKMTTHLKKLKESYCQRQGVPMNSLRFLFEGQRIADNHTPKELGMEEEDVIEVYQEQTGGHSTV
Chain of Genome polyprotein (P29990 2492-3391 limits assumed): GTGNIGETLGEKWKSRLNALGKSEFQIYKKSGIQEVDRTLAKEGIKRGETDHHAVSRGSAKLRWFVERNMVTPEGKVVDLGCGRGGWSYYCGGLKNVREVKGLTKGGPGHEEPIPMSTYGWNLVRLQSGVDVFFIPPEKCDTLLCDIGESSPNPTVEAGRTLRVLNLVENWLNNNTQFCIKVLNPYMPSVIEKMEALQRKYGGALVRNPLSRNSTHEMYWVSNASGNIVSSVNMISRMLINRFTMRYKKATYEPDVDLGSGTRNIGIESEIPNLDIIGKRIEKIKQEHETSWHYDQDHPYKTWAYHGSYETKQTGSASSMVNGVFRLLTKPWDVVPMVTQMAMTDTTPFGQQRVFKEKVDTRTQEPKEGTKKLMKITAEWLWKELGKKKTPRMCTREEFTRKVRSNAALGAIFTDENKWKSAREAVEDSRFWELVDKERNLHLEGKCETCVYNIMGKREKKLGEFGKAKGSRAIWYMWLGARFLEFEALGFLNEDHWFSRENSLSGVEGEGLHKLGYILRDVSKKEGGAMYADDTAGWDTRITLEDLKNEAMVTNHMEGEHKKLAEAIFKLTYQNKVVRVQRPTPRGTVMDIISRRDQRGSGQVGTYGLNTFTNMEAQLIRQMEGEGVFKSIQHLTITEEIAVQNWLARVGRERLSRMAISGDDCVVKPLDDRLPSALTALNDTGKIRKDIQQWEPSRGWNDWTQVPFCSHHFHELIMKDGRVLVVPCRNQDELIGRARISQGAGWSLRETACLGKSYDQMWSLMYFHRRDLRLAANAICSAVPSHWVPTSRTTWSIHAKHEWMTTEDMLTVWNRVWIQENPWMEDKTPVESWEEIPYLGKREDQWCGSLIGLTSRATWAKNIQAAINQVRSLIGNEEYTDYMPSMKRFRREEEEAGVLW
Chain of ORF 73 (O40947 whole entry): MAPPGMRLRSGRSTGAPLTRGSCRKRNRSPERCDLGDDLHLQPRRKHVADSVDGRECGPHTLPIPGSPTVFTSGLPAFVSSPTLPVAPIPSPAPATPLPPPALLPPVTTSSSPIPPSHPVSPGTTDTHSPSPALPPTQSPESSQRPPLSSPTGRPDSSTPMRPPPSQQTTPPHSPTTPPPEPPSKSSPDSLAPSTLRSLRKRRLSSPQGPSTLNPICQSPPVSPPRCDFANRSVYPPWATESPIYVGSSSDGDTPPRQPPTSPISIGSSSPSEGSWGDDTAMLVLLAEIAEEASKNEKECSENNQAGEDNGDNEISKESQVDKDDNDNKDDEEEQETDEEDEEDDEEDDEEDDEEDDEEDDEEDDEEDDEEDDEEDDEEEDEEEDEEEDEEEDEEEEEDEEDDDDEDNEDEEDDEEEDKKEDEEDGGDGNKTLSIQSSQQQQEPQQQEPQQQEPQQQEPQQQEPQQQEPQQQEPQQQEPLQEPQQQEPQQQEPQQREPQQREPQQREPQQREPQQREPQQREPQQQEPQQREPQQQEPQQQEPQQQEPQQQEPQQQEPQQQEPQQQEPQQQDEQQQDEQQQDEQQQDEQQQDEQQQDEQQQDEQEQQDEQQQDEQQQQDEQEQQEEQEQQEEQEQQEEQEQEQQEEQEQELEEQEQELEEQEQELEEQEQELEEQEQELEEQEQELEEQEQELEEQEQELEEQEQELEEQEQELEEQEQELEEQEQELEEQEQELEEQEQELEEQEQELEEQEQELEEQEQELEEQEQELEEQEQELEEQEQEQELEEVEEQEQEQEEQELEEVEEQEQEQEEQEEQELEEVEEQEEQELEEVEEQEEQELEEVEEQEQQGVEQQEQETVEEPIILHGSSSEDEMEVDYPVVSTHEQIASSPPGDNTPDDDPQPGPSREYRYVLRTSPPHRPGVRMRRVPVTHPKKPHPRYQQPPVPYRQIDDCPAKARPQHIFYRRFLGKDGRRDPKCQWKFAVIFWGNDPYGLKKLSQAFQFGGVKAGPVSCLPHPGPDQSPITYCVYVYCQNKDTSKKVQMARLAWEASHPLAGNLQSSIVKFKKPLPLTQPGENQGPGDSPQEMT

The term CC50 denotes the concentration giving 50% cytotoxicity. The term EC50 denotes the concentration giving half of the maximal effect. What is called AC50 is the concentration giving half of the maximal activity seen. As for `CCOC(=O)C1Nc2ccc(C(=O)O)cc2C2C=CCC12` (centres undefined), the IC50 is > 66.6 µM (inactive) in experiment [1]; > 66 µM (inactive) in experiment [2]; 44.9 µM (active) at Genome polyprotein; > 66 µM (inactive) in experiment [3]; 305 µM (active) in experiment [5]; 39 µM (inactive) in [7]. Also, the half-maximal cytotoxic concentration (CC50) in the experiment on Vero was > 40 µM (active). Also, the EC50 is 20.3 µM (active) in experiment [4] and 38.9 µM (active) in experiment [6]. The AC50 on ORF 73 is 42.9 µM (active).

With `Clc1cccc(/N=C/c2ccc(OC3CSC3)cc2)c1`, the IC50 (in [8]; in experiment [9]; on Caspase-3; in experiment [10]) was > 99 µM (inactive) each time.
